Like-named read-outs stand apart in the source and are kept apart here.
Assays:
Assay type in all cases: in vivo
[1] = system: Blumeria (Erysiphe) graminis DC. f.sp. tritici E. Marchal; test: Curative and residual control test, Wheat Powdery Mildew (WPM); settings: read-out: Disease control (% efficacy)
From the text: (§1) • (a) Wheat Powdery Mildew (WPM): HOST: Wheat (Triticum aestivum L.) variety Kanzler PATHOGEN: Blumeria (Erysiphe) graminis DC. f.sp. tritici E. Marchal • (b) Cucumber Powdery Mildew (QPM): HOST: Cucumber (Cucumis sativus L.) variety Bush pickle PATHOGEN: Erysiphe cichoracearum DC
(§2) This test procedure is for curative and residual control of powdery mildew diseases. • 1. Wheat seed (approximately 8-10/pot) or cucumber seed (1 seed / pot) is planted in 6 cm diameter plastic pots and maintained in the greenhouse. • 2. When the primary leaf (wheat) or the cotyledons (cucumber) is/are fully expanded, formulated test compounds are sprayed with a single nozzle overhead track sprayer at a rate of 200 l/ha. Plants are then allowed to air-dry. • 3. Inoculation precedes treatment by 2 or 3 days in the case of curative evaluations and follows treatment by 3 or 4 days in case of residual evaluations. For inoculation, plants are set up on greenhouse benches with bottom watering mats and inoculated by dusting them with conidia from powdery mildew infected plants (stock cultures at an age of 10-14 days). Between inoculation and treatment for curative evaluations and between treatment and inoculation for residual evaluations, plants are maintained in the greenhouse with bottom watering. • 4. Disease on the primary leaf (wheat) or on the cotyledons (cucumber) as percent leaf area with disease symptoms/signs is evaluated about 7 days after inoculation. In the case of wheat, the tips and bases of the leaves are excluded from the evaluation. Percent disease control is then calculated by the following formula: % disease control = 100 -(% infection in treated plants)/(% infection in untreated plants)x 100 [formula]
(§3) • 1. Technical compounds are formulated in a solvent/surfactant system consisting of 5% acetone and 0.05% Tween 20 in deionized water. Compounds are dissolved in acetone prior to addition of the water; the Tween 20 can be added through either the acetone or the water. Dilutions are made using the solvent/surfactant system. Formulated compounds are prepared using deionized water. • 2. Two kinds of controls are included: • Plants treated with the solvent/surfactant solution and inoculated (Solvent Blank). • Untreated plants which are inoculated (Inoculated Control).

[2] = system: Blumeria (Erysiphe) graminis DC. f.sp. tritici E. Marchal; test: Zero day protectant test, Wheat Powdery Mildew (WPM); settings: wheat variety Kanzler, 0 day protectant test, side-by-side, technical material in 0.5% acetone 0.05% Tween 20 water
From the text: (§4) • (a) Wheat Powdery Mildew (WPM): HOST: Wheat (Triticum aestivum L.) variety Kanzler PATHOGEN: Blumeria (Erysiphe) graminis DC. f.sp. tritici E. Marchal • (b) Barley Powdery Mildew (BPM): HOST: Barley (Hordeum vulgare L.) variety Golden Promise PATHOGEN: Blumeria (Erysiphe) graminis DC. f.sp. hordei E. Marchal
(§5) This test is a zero day protectant test for control of wheat and barley powdery mildews. • 1. Wheat or barley seed (approximately 8-10/pot) is planted in 6 cm diameter plastic pots and maintained in the greenhouse. • 2. When the primary leaf is fully expanded, formulated test compounds are sprayed with a single nozzle overhead track sprayer at a rate of 200 l/ha. Plants are then allowed to air-dry. • 3. Inoculation follows about three hours after compound application. Plants are set up on greenhouse benches with bottom watering mats and inoculated by dusting them with conidia from powdery mildew infected plants (stock cultures at an age of 10-14 days). • 4. Disease on the primary leaf as percent leaf area with disease symptoms/signs is evaluated about 7 days after inoculation. The tips and bases of the leaves are excluded from the evaluation. Percent disease control is then calculated by the following formula: % disease control = 100 -(% infection in treated plants)/(% infection in untreated plants)x 100 [formula]
as §3, with “system. Test compounds are typically tested over a range of concentrations covering several orders of magnitude and then ED values are calculated for comparison of compounds.” for “system.”
(§6) Compounds applied as technical material formulated in 0.5% acetone 0.05% Tween 20 water

[3] = system: Blumeria (Erysiphe) graminis DC. f.sp. hordei E. Marchal; test: Zero day protectant test, Barley Powdery Mildew (BPM); settings: barley variety Golden Promise, 0 day protectant test, side-by-side, technical material in 0.5% acetone 0.05% Tween 20 water
From the text: as §4, §5
as §3, with “system. Test compounds are typically tested over a range of concentrations covering several orders of magnitude and then ED values are calculated for comparison of compounds.” for “system.”
as §6

[4] = system: Erysiphe cichoracearum DC; test: Curative and residual control test, Cucumber Powdery Mildew (QPM); settings: Golovinomyces cichoracearum, 72 h, read-out: Disease control (% efficacy); for Emax at 12.5 ppm: QPM 3 da R (3 day residual), 12,5 ppm; for Emax at 125 ppm / Emax at 1250 ppm: QPM 3 da R (3 day residual)
From the text: as §1, §2, §3

[5] = 72 h, WPM 3 da C (3 day curative)
[6] = 72 h, WPM 3 da C (3 day curative), 125 ppm
[7] = 96 h, WPM 4 da R (4 day residual)
[8] = 96 h, WPM 4 da R (4 day residual), 125 ppm
[9] = 48 h, WPM 2 da C (2 day curative), 12,5 ppm, Test B
[10] = 48 h, WPM 2 da C (2 day curative), 125 ppm, Test B
[11] = 48 h, WPM 2 da C (2 day curative), 1250 ppm, Test B
[12] = 72 h, WPM 3 da R (3 day residual), 12,5 ppm, Test B
[13] = 72 h, WPM 3 da R (3 day residual), 125 ppm, Test B
[14] = 72 h, WPM 3 da R (3 day residual), 1250 ppm, Test B

## COc1cc(C)c(C(=O)c2c(OC)cccc2C(F)(F)F)c(OC)c1OC [Example 65, 6'-methyl-2,2',3',4'-tetramethoxy-6-trifluoromethyl-benzophenone]
[1]; [5]
  percent disease control at 0.2 ppm: 10%
  percent disease control at 1 ppm: 23%
  percent disease control at 5 ppm: 23%
  percent disease control at 25 ppm: 48%
[1]; [6]
  percent disease control at 125 ppm: 58%
[1]; [7]
  percent disease control at 0.2 ppm: 25%
  percent disease control at 1 ppm: 50%
  percent disease control at 5 ppm: 93%
  percent disease control at 25 ppm: 99%
[1]; [8]
  percent disease control at 125 ppm: 100%

## COc1cc(C)c(C(=O)c2c(OC)ccc(C(F)(F)F)c2C)c(OC)c1OC [Example 64, 6,6'-dimethyl-2,2',3',4'-tetramethoxy-5-trifluoromethyl-benzophenone]
[1]; [5]
  percent disease control at 0.2 ppm: 10%
  percent disease control at 1 ppm: 37%
  percent disease control at 5 ppm: 48%
  percent disease control at 25 ppm: 60%
[1]; [6]
  percent disease control at 125 ppm: 72%
[1]; [7]
  percent disease control at 0.2 ppm: 51%
  percent disease control at 1 ppm: 89%
  percent disease control at 5 ppm: 99%
  percent disease control at 25 ppm: 100%
[1]; [8]
  percent disease control at 125 ppm: 100%

## Fc1ccc(Oc2ccnc3cc(Cl)cc(Cl)c23)cc1 [Quinoxyfen, reference compound]
[2]
  ED90 (ppm): 12 ppm
[3]
  ED90 (ppm): 26 ppm

## COc1cc(C)c(C(=O)c2c(OC)ccc(Br)c2Cl)c(OC)c1OC [Example 4, 5-bromo-6-chloro-6'-methyl-2,2',3',4'-tetramethoxy-benzophenone]
[2]
  ED90 (ppm): 5 ppm
[3]
  ED90 (ppm): 7 ppm
[4]; Test B
  Emax at 12.5 ppm: 8%
  Emax at 125 ppm: 97%
  Emax at 1250 ppm: 100%
[1]; [9]
  percent disease control at 12.5 ppm: 55%
[1]; [10]
  percent disease control at 125 ppm: 71%
[1]; [11]
  percent disease control at 1250 ppm: 61%
[1]; [12]
  percent disease control at 12.5 ppm: 99%
[1]; [13]
  percent disease control at 125 ppm: 100%
[1]; [14]
  percent disease control at 1250 ppm: 100%

## COc1cc(C)c(C(=O)c2c(OC)ccc(Br)c2C)c(OC)c1OC [Example 6, 5-bromo-6,6'-dimethyl-2,2',3',4'-tetramethoxy-benzophenone]
[2]
  ED90 (ppm): 0.1 ppm
[3]
  ED90 (ppm): 0.9 ppm
[4]; Test A
  Emax at 12.5 ppm: 2%
  Emax at 125 ppm: 92%
  Emax at 1250 ppm: 100%
[4]; Test B
  Emax at 12.5 ppm: 35%
  Emax at 125 ppm: 92%
  Emax at 1250 ppm: 100%
[1]; 48 h, WPM 2 da C (2 day curative), 12,5 ppm, Test A
  percent disease control at 12.5 ppm: 90%
[1]; [9]
  Emax at 12.5 ppm: 61%
[1]; 48 h, WPM 2 da C (2 day curative), 125 ppm, Test A
  percent disease control at 125 ppm: 95%
[1]; [10]
  Emax at 125 ppm: 89%
[1]; 48 h, WPM 2 da C (2 day curative), 1250 ppm, Test A
  percent disease control at 1250 ppm: 98%
[1]; [11]
  Emax at 1250 ppm: 87%
[1]; [5]
  percent disease control at 0.2 ppm: 17%
  percent disease control at 1 ppm: 27%
  percent disease control at 5 ppm: 43%
  percent disease control at 25 ppm: 60%
[1]; [6]
  percent disease control at 125 ppm: 64%
[1]; 72 h, WPM 3 da R (3 day residual), 12,5 ppm, Test A
  percent disease control at 12.5 ppm: 100%
[1]; [12]
  percent disease control at 12.5 ppm: 100%
[1]; 72 h, WPM 3 da R (3 day residual), 125 ppm, Test A
  percent disease control at 125 ppm: 100%
[1]; [13]
  percent disease control at 125 ppm: 100%
[1]; 72 h, WPM 3 da R (3 day residual), 1250 ppm, Test A
  percent disease control at 1250 ppm: 100%
[1]; [14]
  percent disease control at 1250 ppm: 100%
[1]; [7]
  percent disease control at 0.2 ppm: 58%
  percent disease control at 1 ppm: 90%
  percent disease control at 5 ppm: 100%
  percent disease control at 25 ppm: 100%
[1]; [8]
  percent disease control at 125 ppm: 100%

From patent EP0897904B1, “Fungicidal 2-methoxybenzophenones” (BASF AKTIENGESELLSCHAFT, priority 1997, dated 1999)
